This is an account of results in patent US9796711B2, “Substituted pyrazolo[3,4-b]pyridin-6-carboxylic acids and method of use” (AbbVie S.àr.l., priority 2015, dated 2017).

Test [1] concerns the target T1, ΔF508-CFTR (Homo sapiens, UniProt P13569, DEL508-508).
T1 construct: host or cells: CFBE41o-, doxycycline-inducible
Description: CFTR cell surface levels using HRP-tagged ΔF508-CFTR expressing CFBE cells, in the presence of a co-corrector. The settings on record: HRP-tagged ΔF508-CFTR expressing CFBE cells, in the presence of 3 μM co-corrector; for EC50: read-out: EC50. It is filed as cell-based. An outline of the steps: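 Cells were seeded with 0.5 μg/mL doxycycline and held 68 h at 37 °C. Test compounds plus 3 μM co-corrector (final 0.1% DMSO) were then added for 20 h at 33 °C. Washed cells received HRP substrate, and luminescence was normalized between DMSO and 3 μM co-corrector controls.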

Test [2] addresses T1, ΔF508-CFTR. Briefly: CFTR cell surface levels using HRP-tagged ΔF508-CFTR expressing CFBE cells, intrinsic corrector capacity. The conditions noted are these: for EC50: read-out: EC50. It is filed as cell-based. An outline of the steps:
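Here the cells express ΔF508-CFTR with horseradish peroxidase inserted in extracellular loop 4, so only rescued channel at the surface gives luminescent signal. Compounds act on their own, 20 h at the reduced temperature of 33 °C; values are percent activity relative to DMSO and a 3 μM corrector.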

[3] abbreviates: HRP-tagged ΔF508-CFTR expressing CFBE cells, intrinsic corrector capacity (no co-corrector), 33° C., 20 hours.
Where [4] appears, read: HRP-tagged ΔF508-CFTR CFBE41o- cells, compounds alone (intrinsic corrector capacity), 20 hours at 33° C., positive control 3 μM corrector.
[5] abbreviates: HRP-tagged ΔF508-CFTR CFBE41o- cells, compounds alone (intrinsic corrector capacity), 20 hours at 33° C.

T1 sequence (P13569 with tags, fused parts or gaps DEL508-508): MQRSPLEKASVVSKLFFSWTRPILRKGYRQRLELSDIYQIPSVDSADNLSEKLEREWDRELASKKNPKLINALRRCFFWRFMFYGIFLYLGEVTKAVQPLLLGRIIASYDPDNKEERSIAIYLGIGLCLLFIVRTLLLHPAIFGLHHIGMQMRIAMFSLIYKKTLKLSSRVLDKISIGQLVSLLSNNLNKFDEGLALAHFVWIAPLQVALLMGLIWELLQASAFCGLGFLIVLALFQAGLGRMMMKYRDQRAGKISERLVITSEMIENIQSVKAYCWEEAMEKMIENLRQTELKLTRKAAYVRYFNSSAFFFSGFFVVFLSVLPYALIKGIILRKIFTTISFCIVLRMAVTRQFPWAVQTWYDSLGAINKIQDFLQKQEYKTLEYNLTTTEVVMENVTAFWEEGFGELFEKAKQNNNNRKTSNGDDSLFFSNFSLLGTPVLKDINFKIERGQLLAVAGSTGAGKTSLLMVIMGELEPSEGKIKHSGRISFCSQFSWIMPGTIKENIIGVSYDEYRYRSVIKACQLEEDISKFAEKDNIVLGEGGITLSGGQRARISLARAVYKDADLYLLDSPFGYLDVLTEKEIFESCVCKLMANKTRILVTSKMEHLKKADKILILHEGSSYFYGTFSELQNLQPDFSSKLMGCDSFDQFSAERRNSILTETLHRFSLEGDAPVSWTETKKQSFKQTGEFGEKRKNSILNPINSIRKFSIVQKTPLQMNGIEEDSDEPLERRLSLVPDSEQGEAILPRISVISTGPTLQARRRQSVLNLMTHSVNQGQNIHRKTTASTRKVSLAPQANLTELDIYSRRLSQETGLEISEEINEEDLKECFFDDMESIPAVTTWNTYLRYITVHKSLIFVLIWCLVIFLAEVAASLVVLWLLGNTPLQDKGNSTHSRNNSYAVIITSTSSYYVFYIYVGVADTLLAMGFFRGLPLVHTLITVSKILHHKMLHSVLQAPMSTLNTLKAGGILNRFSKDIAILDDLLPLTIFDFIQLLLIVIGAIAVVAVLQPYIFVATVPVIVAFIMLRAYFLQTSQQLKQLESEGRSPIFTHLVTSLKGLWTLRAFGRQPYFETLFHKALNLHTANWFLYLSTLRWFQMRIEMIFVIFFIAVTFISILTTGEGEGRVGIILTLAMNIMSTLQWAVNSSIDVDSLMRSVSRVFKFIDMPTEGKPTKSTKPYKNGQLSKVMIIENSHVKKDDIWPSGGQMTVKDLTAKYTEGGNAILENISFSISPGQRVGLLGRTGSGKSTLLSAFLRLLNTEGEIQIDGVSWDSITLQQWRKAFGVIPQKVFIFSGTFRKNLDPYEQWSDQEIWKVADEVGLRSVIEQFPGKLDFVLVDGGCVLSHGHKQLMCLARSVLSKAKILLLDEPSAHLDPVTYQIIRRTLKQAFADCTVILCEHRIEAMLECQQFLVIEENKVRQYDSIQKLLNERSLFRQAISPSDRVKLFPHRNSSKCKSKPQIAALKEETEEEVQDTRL

A word on the EC50: it is the midpoint of the concentration-response curve. Regarding `O=CN1CCCN(CC2CCN(c3cc(C(=O)O)nc4c3c(C3CCC3)nn4-c3ccccc3)CC2)CC1` [compound 839], in test [1], the “% Activation” value was 437.3% and the EC50 was found to be 180 nM. Besides, in test [2] (setting [3]), the “% Activation” value was found to be 275.7% and the EC50 is 921 nM.
`Cc1nn(-c2ccccc2)c2nc(C(=O)O)cc(N3CCCN(S(C)(=O)=O)CC3)c12` [compound 320, 4-[4-(methanesulfonyl)-1,4-diazepan-1-yl]-3-methyl-1-phenyl-1H-pyrazolo[3,4-b]pyridine-6-carboxylic acid]: the “% Activation” value in test [1] is 166.3%; in test [2] (setting [4]), 19.37%. In addition, the concentration giving a half-maximal response (EC50) in test [1] was 3340 nM; in test [2] (setting [5]) it was above 10000 nM.
As to `COCC1CCN(c2cc(C(=O)O)nc3c2c(C(C)C)nn3-c2cc(C)nc(C)c2)CC1` [compound 677, 1-(2,6-dimethylpyridin-4-yl)-4-[4-(methoxymethyl)piperidin-1-yl]-3-(propan-2-yl)-1H-pyrazolo[3,4-b]pyridine-6-carboxylic acid], the “% Activation” value in test [1] is reported as 260.45%; in test [2] (setting [3]), 67.38%. For the same compound, the figures for the concentration for a half-maximal effect (EC50) in test [1] and in test [2] (setting [3]) were 6550 nM and 1570 nM, respectively.
Take `O=C(O)c1cc(OCCN(C2CCCCC2)C2COC2)c2c(C3CCC3)nn(-c3ccccc3)c2n1` [compound 625, 3-cyclobutyl-4-{2-[cyclohexyl(oxetan-3-yl)amino]ethoxy}-1-phenyl-1H-pyrazolo[3,4-b]pyridine-6-carboxylic acid]: the “% Activation” value in test [1] came out at 326.75%; in test [2] (setting [3]) it was 135.2%. Moreover, the EC50 worked out at 126 nM in test [1] and 300 nM in test [2] (setting [3]).
Regarding `Cc1nn(-c2ccccc2)c2nc(C(=O)O)cc(OCC3(C)COC3)c12` [compound 375, 3-methyl-4-[(3-methyloxetan-3-yl)methoxy]-1-phenyl-1H-pyrazolo[3,4-b]pyridine-6-carboxylic acid], the “% Activation” value in test [1] is listed as 184.1%; in test [2] (setting [4]), 36.645%. Also, the EC50 came to 1670 nM in test [1] and 3340 nM in test [2] (setting [5]).
In the case of `O=C(O)c1cc(N2CCC(CN3CC[C@@H](F)C3)CC2)c2c(C3CCC3)nn(-c3ccccc3)c2n1` [compound 832, 3-cyclobutyl-4-(4-{[(3R)-3-fluoropyrrolidin-1-yl]methyl}piperidin-1-yl)-1-phenyl-1H-pyrazolo[3,4-b]pyridine-6-carboxylic acid], the “% Activation” value in test [1] is 526.6%; in test [2] (setting [3]), 250.5%. Further, the concentration giving a half-maximal response (EC50) in test [1] worked out at 1070 nM; in test [2] (setting [3]) it was 151 nM.
Regarding `CC1CN(c2ccc(-c3cc(C(=O)O)nc4c3c(C(C)C)nn4C3CCCCC3)cn2)CC(C)O1` (centres unmarked) [compound 196, 1-cyclohexyl-4-[6-(2,6-dimethylmorpholin-4-yl)pyridin-3-yl]-3-(propan-2-yl)-1H-pyrazolo[3,4-b]pyridine-6-carboxylic acid], the “% Activation” value in test [1] was 520.8%; in test [2] (setting [4]), 251.45%. The EC50 is 596 nM in test [1] and 555 nM in test [2] (setting [5]).
Take `Cc1nn(-c2ccccc2)c2nc(C(=O)O)cc(N3CCOCC3)c12` [compound 118, 3-methyl-4-(morpholin-4-yl)-1-phenyl-1H-pyrazolo[3,4-b]pyridine-6-carboxylic acid]: the “% Activation” value in test [1] was 165.25%; in test [2] (setting [4]), 26.575%. Also, the figures for the concentration giving a half-maximal response (EC50) in test [1] and in test [2] (setting [5]) were 3340 nM and 6670 nM, respectively.
Consider `O=C(O)c1cc(N2CC[C@@H](N3CCOCC3)C2)c2c(C3CCC3)nn(-c3ccccc3)c2n1` [compound 577, 3-cyclobutyl-4-[(3R)-3-(morpholin-4-yl)pyrrolidin-1-yl]-1-phenyl-1H-pyrazolo[3,4-b]pyridine-6-carboxylic acid], for which, in test [1], the “% Activation” value is 300.47% and the 50% effective concentration (EC50) worked out at 1150 nM. For the same compound, in test [2] (setting [3]), the “% Activation” value came out at 108% and the EC50 worked out at 3030 nM.
As for `COCCN(C)c1ncc(-c2cc(C(=O)O)nc3c2c(C(C)C)nn3-c2cccc(N3CCOCC3)c2)cn1` [compound 230, 4-{2-[(2-methoxyethyl)(methyl)amino]pyrimidin-5-yl}-1-[3-(morpholin-4-yl)phenyl]-3-(propan-2-yl)-1H-pyrazolo[3,4-b]pyridine-6-carboxylic acid], the entries for the “% Activation” value in test [1] and in test [2] (setting [4]) were 507.3% and 368.85%, respectively. Moreover, the half-maximal effective concentration (EC50) in test [1] turned out to be 514 nM; in test [2] (setting [5]), 1490 nM.
`O=C(O)c1cc(N2CCC(N3CCOCC3)CC2)c2c(C3CCC3)nn(-c3ccc(F)c(F)c3)c2n1` [compound 907, 3-cyclobutyl-1-(3,4-difluorophenyl)-4-[4-(morpholin-4-yl)piperidin-1-yl]-1H-pyrazolo[3,4-b]pyridine-6-carboxylic acid]: the “% Activation” value in test [1] worked out at 483.65%; in test [2] (setting [3]) it was 270.7%. For the same compound, the EC50 in test [1] stood at 183 nM; in test [2] (setting [3]), 260 nM.
In the same order, the values of `O=C(O)c1cc(O[C@@H]2CCOC2)c2c(C3CCC3)nn(-c3ccccc3)c2n1` [compound 582, 3-cyclobutyl-4-{[(3R)-oxolan-3-yl]oxy}-1-phenyl-1H-pyrazolo[3,4-b]pyridine-6-carboxylic acid] are 307.5%, 92.03%, 614 nM and 903 nM.
`Cc1nn(-c2ccccc2)c2nc(C(=O)O)cc(-c3ccc(N4CCOC(CO)C4)cc3)c12` (centres unmarked) [compound 133, 4-{4-[2-(hydroxymethyl)morpholin-4-yl]phenyl}-3-methyl-1-phenyl-1H-pyrazolo[3,4-b]pyridine-6-carboxylic acid]: the “% Activation” value in test [1] is on record as 280.3%; in test [2] (setting [4]) it was 74.96%. Also, the 50% effective concentration (EC50) in test [1] and in test [2] (setting [5]) was 3340 nM each time.
For the compound `CC(C)c1nn(-c2cccc(N(C)C)c2)c2nc(C(=O)O)cc(N3CCCCC3)c12` [compound 328, 1-[3-(dimethylamino)phenyl]-4-(piperidin-1-yl)-3-(propan-2-yl)-1H-pyrazolo[3,4-b]pyridine-6-carboxylic acid], the “% Activation” value in test [1] is 422.25%; in test [2] (setting [4]), 196.9%. The half-maximal effective concentration (EC50) was 463 nM in test [1] and 671 nM in test [2] (setting [5]).
On to `Cc1nn(-c2ccccc2)c2nc(C(=O)O)cc(N3CCC4(CCNC4=O)C3)c12` (centres unmarked) [compound 313, 3-methyl-4-(6-oxo-2,7-diazaspiro[4.4]nonan-2-yl)-1-phenyl-1H-pyrazolo[3,4-b]pyridine-6-carboxylic acid], for which the “% Activation” value in test [1] is given as 132.2%; in test [2] (setting [4]) it was 11.239%. The 50% effective concentration (EC50) in test [1] and in test [2] (setting [5]) was 7500 nM throughout.
In the case of `CC(C)c1nn(-c2cccc(F)c2)c2nc(C(=O)O)cc(-c3ccc(N4CCC(C#N)CC4)nc3)c12` [compound 285, 4-[6-(4-cyanopiperidin-1-yl)pyridin-3-yl]-1-(3-fluorophenyl)-3-(propan-2-yl)-1H-pyrazolo[3,4-b]pyridine-6-carboxylic acid], the results for the “% Activation” value in test [1] and in test [2] (setting [4]) were 428% and 255.73%, respectively. For the same compound, the results for the 50% effective concentration (EC50) in test [1] and in test [2] (setting [5]) were 261 nM and 655 nM, respectively.
`COC1CN(C(=O)COc2cc(C(=O)O)nc3c2c(C2CCC2)nn3-c2ccccc2)C1` [compound 481, 3-cyclobutyl-4-[2-(3-methoxyazetidin-1-yl)-2-oxoethoxy]-1-phenyl-1H-pyrazolo[3,4-b]pyridine-6-carboxylic acid]: the results for the “% Activation” value in test [1] and in test [2] (setting [3]) were 210.3% and 48.6%, respectively. In addition, the concentration giving a half-maximal response (EC50) in test [1] amounted to 3050 nM; in test [2] (setting [3]) it was 3340 nM.
